From US8119651B2, “Compositions useful especially for treatment or prevention of metabolic syndrome” (Biotie Therapies Corp., priority 2004, dated 2012)
Where “and” joins values, the source holds several entries; their conditions need not be identical. Equal entries are not always repeated. Where two headings read alike, the source gives them in different places.

What was measured:
[1] = target: T1, amine oxidase, copper containing 3 (AOC3) (Homo sapiens, UniProt Q16853); experiment: Enzyme inhibiting activity of FP-1113 versus thiamine (FIG. 3)
T1 sequence (Q16853 1-763): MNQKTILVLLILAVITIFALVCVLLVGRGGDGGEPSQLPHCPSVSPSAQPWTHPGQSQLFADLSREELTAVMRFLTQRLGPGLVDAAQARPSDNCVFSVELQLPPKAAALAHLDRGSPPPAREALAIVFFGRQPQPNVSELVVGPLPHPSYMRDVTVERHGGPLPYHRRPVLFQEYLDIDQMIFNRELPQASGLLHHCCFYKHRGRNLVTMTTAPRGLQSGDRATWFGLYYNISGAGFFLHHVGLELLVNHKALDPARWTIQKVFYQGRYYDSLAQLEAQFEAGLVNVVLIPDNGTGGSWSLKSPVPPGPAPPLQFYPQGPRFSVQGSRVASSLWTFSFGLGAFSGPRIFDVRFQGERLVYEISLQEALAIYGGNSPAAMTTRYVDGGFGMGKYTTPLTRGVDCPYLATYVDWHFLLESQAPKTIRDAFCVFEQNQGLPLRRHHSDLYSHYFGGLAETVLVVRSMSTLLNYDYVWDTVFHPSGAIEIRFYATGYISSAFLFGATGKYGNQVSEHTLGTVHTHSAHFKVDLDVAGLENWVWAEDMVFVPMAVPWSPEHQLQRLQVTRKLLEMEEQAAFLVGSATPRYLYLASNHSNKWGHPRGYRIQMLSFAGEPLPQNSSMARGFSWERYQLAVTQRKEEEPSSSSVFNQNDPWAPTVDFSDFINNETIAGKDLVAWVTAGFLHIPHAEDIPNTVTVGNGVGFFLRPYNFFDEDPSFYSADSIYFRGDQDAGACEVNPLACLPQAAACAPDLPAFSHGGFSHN
Description: The enzyme inhibiting activity was tested as described above.

serum VAP-1/SSAO [2] = target: T2, serum VAP-1/SSAO (Homo sapiens, UniProt Q16853); experiment: Serum VAP-1/SSAO enzymatic activity of volunteers before and after oral intake
T2 sequence (Q16853 27-763 limits assumed): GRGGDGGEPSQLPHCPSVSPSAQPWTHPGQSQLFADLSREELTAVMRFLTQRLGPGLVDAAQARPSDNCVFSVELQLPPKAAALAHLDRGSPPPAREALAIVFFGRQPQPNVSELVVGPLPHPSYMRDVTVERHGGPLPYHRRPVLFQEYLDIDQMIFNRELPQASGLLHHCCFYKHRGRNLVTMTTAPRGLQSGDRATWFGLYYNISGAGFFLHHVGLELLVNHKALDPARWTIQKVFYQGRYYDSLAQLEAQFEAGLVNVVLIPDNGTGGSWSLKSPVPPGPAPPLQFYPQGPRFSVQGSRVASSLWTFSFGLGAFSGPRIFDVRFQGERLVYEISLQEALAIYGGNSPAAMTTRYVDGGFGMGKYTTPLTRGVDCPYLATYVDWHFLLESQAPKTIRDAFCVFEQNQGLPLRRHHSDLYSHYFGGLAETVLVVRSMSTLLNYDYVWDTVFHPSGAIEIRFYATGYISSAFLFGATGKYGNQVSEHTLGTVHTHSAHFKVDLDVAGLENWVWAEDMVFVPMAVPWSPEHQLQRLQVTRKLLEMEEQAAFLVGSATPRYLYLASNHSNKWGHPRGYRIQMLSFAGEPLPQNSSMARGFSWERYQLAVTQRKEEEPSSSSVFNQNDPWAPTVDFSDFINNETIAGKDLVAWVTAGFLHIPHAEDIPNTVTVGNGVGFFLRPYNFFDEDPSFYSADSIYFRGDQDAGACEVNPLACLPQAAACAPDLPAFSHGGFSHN

serum VAP-1/SSAO [3] = target: serum VAP-1/SSAO (Homo sapiens, UniProt Q16853)
Description: Amine oxidase activity was assayed radiochemically using [7-^14C]-benzylamine hydrochloride (spec. act. 57 mCi/mmol, Amersham) as a substrate and 25 microliters of serum. […] Potential inhibition of serum VAP-1/SSAO enzymatic activity was measured in presence of indicated concentrations of thiamine. Finally, enzymatic activity of serum VAP-1/SSAO of six volunteers was measured before and after eating vitamin B1 100 mg/day for 5 to 9 days. Similarly serum VAP-1/SSAO activity of four volunteers eating benfothiamine 200 mg/day for four days was measured.

[4] = target: T3, SSAO activity of VAP-1 transfected CHO cells (Homo sapiens, UniProt Q16853); experiment: Fluorometric detection of SSAO-mediated H2O2 formation (Amplex Red); format: cell-based; settings: for Inhibition of SSAO activity (controls): 1 mg/ml, VAP-1 transfected CHO cells
T3 construct: expressed in transfected cells; host or cells: CHO cells
T3 sequence (Q16853 1-763): T1 sequence (Q16853 1-763)
Description: Molecular Probes Europe BV), a highly sensitive and stable probe for H2O2. […] Catalytic reaction was initiated by addition of benzylamine as substrates and H2O2-detecting mixture containing horseradish peroxidase (final concentration 0.8 U/ml) and Amplex Red reagent (60 μM). The plates were incubated for 1-2 hours at 37° C. in the final volume of 250 μl, the bathing medium was clarified by centrifugation and placed in aliquots (200 μl) into white non-phosphorescent microplates (Cliniplate). Fluorescence intensity of the samples was measured (excitation, 545 nm; emission, 590 nm; Tecan ULTRA fluoropolarometer) and H2O2 concentration was calculated from calibration curves generated by serial dilutions of either standard H2O2 or resorufin, the product of the Amplex Red reaction (Molecular Probes).

mice [5] = experiment: Glycosylated hemoglobin (HbAlc) in blood of fasted mice; format: in vivo; settings: oral methylamine supplementation, 57-59 week old mice
Description: The increases in blood glucose over fasting blood glucose levels at 30, 60, 90, and 120 minutes after glucose challenge (2.0 g IP glucose/kg body weight) are expressed as mean+SEM. (A) Glucose challenge of 26 week old non-transgenic (open symbols) and mTIEhVAP-1 transgenic mice (filled symbols) with normal tap water (solid lines) or with methylamine supplemented water (dashed lines). Significant effects on the rate of glucose clearance were identified by comparing the areas under the curve (AUC) of individual mice with an ANOVA (methylamine p=0.0002 and methylamine/transgene interaction p=0.046) and by comparing glucose levels at individual time points with unpaired Student's t-tests (asterisks, p<0.01 versus non-transgenic mice with normal water; crosses, p<0.02 versus non-transgenic mice with methylamine). (B) Glucose challenge of 10-12 week old transgenic mice with normal tap water (solid line) followed by 16 days of treatment with methylamine supplemented water (squares and dashed lines), and methylamine supplemented water as well as SSAO inhibitor injections (triangles and dashed lines). […] (C) The mean±SEM percent of glycosylated hemoglobin (HbAlc) was determined from the blood of fasted, 57-59 week old non-transgenic (white bars) and transgenic (black bars) mice with (gray strips) or without oral methylamine supplementation. […]

[6] = tested on: mTIEhVAP-1 transgenic mice; experiment: Glucose challenge of mTIEhVAP-1 transgenic and non-transgenic mice; format: in vivo; settings: methylamine supplemented water; 2.0 g IP glucose/kg
Description: The increases in blood glucose over fasting blood glucose levels at 30, 60, 90, and 120 minutes after glucose challenge (2.0 g IP glucose/kg body weight) are expressed as mean±SEM. FIG. 1A: Glucose challenge of 26 week old non-transgenic (open symbols) and mTIEhVAP-1 transgenic mice (filled symbols) with normal tap water (solid lines) or with methylamine supplemented water (dashed lines). FIG. 1B: Glucose challenge of 10-12 week old transgenic mice with normal tap water (solid line) followed by 16 days of treatment with methylamine supplemented water (squares and dashed lines), and methylamine supplemented water as well as SSAO inhibitor injections (triangles and dashed lines). FIG. 1C: The mean±SEM percent of glycosylated hemoglobin (HbAlc) was determined from the blood of fasted, 57-59 week old non-transgenic (white bars) and transgenic (black bars) mice with (gray strips) or without oral methylamine supplementation. […]
The increases in blood glucose over fasting blood glucose levels at 30, 60, 90, and 120 minutes after glucose challenge (2.0 g IP glucose/kg body weight) are expressed as mean+SEM. […] (C) The mean±SEM percent of glycosylated hemoglobin (HbAlc) was determined from the blood of fasted, 57-59 week old non-transgenic (white bars) and transgenic (black bars) mice with (gray strips) or without oral methylamine supplementation. […]

mice [7] = experiment: Systolic arterial blood pressure and heart rate, tail cuff method; format: in vivo; settings: methylamine supplementation
Description: Systolic arterial blood pressure and heart rate were measured in all of the groups using the tail cuff method. […] A trend for elevated blood pressure was also found with the transgene alone.

mice [8] = experiment: Aorta surface area positive for Oil Red O staining (atherosclerosis); format: in vivo; settings: methylamine supplementation, versus untreated controls
Description: The percentage of aorta surface area positive for Oil Red O staining was determined for the mice in each group.

[9] = volunteers, 100 mg/day for 5 to 9 days

Question: Which “SSAO inhibition compared with thiamine” value [1] does the source give for `Cc1c(CCO)sc[n+]1Cc1ccccc1N.Cl.[Cl-]` [FP-1113, 3-(2-aminobenzyl)-5-(2-hydroxyethyl)-4-methyl-thiazolium Chloride Hydrochloride] here?
Answer: stronger SSAO-inhibitor than thiamine

Question: `Cc1ncc(C[n+]2csc(CCO)c2C)c(N)n1` [Thiamine, thiamine] was tested. Which “Decrease of VAP-1 enzyme activity at the end of the experiment, mean of responders” value (serum VAP-1/SSAO [2]; [9]) did it give?
Answer: 19%

Question: And the Volunteers responding (serum VAP-1/SSAO [2]; [9])?
Answer: Four of the six volunteers responded

Question: What about the “Decrease of VAP-1 enzyme activity at the end of the experiment, individual responders” value (serum VAP-1/SSAO [2]; volunteers, 100 mg/day for 5 to 9 days, listed as vitamin B1) of the same molecule?
Answer: 25% and 2% and 32% and 16%

Question: And the “Decrease of serum VAP-1/SSAO activity in vitro” value (shortened to “Decrease … in vitro”) (serum VAP-1/SSAO [3]; 1 mg/ml)?
Answer: 87%

Question: And the “Decrease … in vitro” value (serum VAP-1/SSAO [3]; 200 micrograms/ml)?
Answer: 32%

Question: And the “Decrease … in vitro” value (serum VAP-1/SSAO [3]; 400 micrograms/ml)?
Answer: 39%

Question: What about the “Decrease … in vitro” value (serum VAP-1/SSAO [3]; 800 micrograms/ml) of the same molecule?
Answer: 70%

Question: And the inhibition at 63 µg/mL ([4]; CHO, thiamine 63 μg/ml, VAP-1 transfected cells)?
Answer: 10.5 ± 8.5%

Question: And the inhibition at 125 µg/mL ([4]; CHO, thiamine 125 μg/ml, VAP-1 transfected cells)?
Answer: 26.5 ± 11%

Question: And the inhibition at 175 µg/mL ([4]; CHO, thiamine 175 μg/ml, VAP-1 transfected cells)?
Answer: 35.5 ± 2.5%

Question: What about the inhibition at 250 µg/mL ([4]; CHO, thiamine 250 μg/ml, VAP-1 transfected cells) of the same molecule?
Answer: 42 ± 2%

Question: And the inhibition at 375 µg/mL ([4]; CHO, thiamine 375 μg/ml, VAP-1 transfected cells)?
Answer: 47 ± 9%

Question: What about the inhibition at 500 µg/mL ([4]; CHO, thiamine 500 μg/ml, VAP-1 transfected cells) of the same molecule?
Answer: 61.5 ± 2.5%

Question: How did the “Inhibition of SSAO activity (controls)” value [4] turn out when `CC1(C)S[C@@H]2[C@H](NC(=O)[C@H](N)c3ccccc3)C(=O)N2[C@H]1C(=O)O` [ampicillin] was run?
Answer: did not inhibit the activity

Question: Which “Decrease of SSAO activity, each individual” value (serum VAP-1/SSAO [2]; four volunteers, 200 mg/day for four days) does the source give for `C/C(=C(\CCOP(=O)(O)O)SC(=O)c1ccccc1)N(C=O)Cc1cnc(C)nc1N` [benfothiamine, benfotiamine] here?
Answer: 9% and 24% and 8% and 27%

Question: Which results are given for `CN` [methylamine]?
Answer: HbAlc levels (mice [5]): decreased; Glucose tolerance after glucose challenge [6]: enhance glucose tolerance; Heart rate (mice [7]): did not affect heart rate; Systolic arterial blood pressure (mice [7]): significantly elevated blood pressure; Percentage of lesion formation in aorta (mice [8]): increased the percentage of lesion formation

Question: Which “Inhibition of SSAO activity (controls)” value [4] does the source give for penicillin here?
Answer: did not inhibit the activity
